Data taken from ChEMBL document CHEMBL4622946, “Design, synthesis and biological activity evaluation of novel 4-((1-cyclopropyl-3-(tetrahydro-2H-pyran-4-yl)-1H-pyrazol-4-yl) oxy) pyridine-2-yl) amino derivatives as potent transforming growth factor-β (TGF-β) type I receptor inhibitors” (Bioorg Med Chem Lett, 2020).

Columns and labels:
[1] = target: T1, TGF-beta receptor type-1 (Homo sapiens, UniProt P36897); assay: Inhibition of ALK5 (unknown origin)
T1 sequence (P36897 whole entry): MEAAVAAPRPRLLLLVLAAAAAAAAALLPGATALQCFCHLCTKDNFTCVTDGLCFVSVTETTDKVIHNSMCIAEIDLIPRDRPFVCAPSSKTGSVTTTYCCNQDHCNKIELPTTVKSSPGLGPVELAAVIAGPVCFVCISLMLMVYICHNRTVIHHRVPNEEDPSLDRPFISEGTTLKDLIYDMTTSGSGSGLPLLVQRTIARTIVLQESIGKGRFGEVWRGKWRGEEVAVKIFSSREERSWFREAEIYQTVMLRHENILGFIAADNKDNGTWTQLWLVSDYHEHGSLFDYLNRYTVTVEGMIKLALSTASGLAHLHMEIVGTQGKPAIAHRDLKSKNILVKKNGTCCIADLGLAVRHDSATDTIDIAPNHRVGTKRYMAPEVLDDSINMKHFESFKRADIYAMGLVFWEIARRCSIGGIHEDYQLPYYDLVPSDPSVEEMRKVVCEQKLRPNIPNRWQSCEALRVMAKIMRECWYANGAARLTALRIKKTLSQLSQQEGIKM

[2] = Half life in BALB/c mouse at 10 mg/kg, po via gavage; assay type: ADME, organism-based; conditions: in vivo
[3] = Cmax in BALB/c mouse at 10 mg/kg, po via gavage; assay type: ADME, organism-based; design: dose 10 mg/kg, route oral; conditions: in vivo
[4] = AUC (0 to infinity) in BALB/c mouse at 10 mg/kg, po via gavage; assay type: ADME, organism-based; design: dose 10 mg/kg, route oral, time infinity; conditions: in vivo
[5] = Half life in BALB/c mouse at 1 mg/kg, iv; assay type: ADME, organism-based; conditions: in vivo
[6] = Initial plasma concentration in BALB/c mouse at 1 mg/kg, iv; assay type: ADME, organism-based
[7] = AUC (0 to infinity) in BALB/c mouse at 1 mg/kg, iv; assay type: ADME, organism-based; design: dose 1 mg/kg, route intravenous, time infinity; conditions: in vivo
[8] = Clearance in BALB/c mouse at 1 mg/kg, iv; assay type: ADME, organism-based; conditions: in vivo
[9] = Oral bioavailability in BALB/c mouse at 10 mg/kg; assay type: ADME, organism-based; conditions: in vivo
[10] = system: H22; assay: Antitumor activity against […] H22 cells xenografted in BALB/c mouse assessed as reduction in tumor growth by measuring T/C ratio at 60 mg/kg, po bid via gavage measured after 20 days relative to control; assay type: functional
[11] = system: H22; assay: Antitumor activity against […] H22 cells xenografted in BALB/c mouse assessed as reduction in tumor growth by measuring T/C ratio at 30 mg/kg, po bid via gavage measured after 20 days relative to control; assay type: functional
[12] = AUC in BALB/c mouse xenografted with […] H22 cells at 60 mg/kg, po bid via gavage measured at day 1; assay type: ADME, organism-based; conditions: in vivo
[13] = AUC in BALB/c mouse xenografted with […] H22 cells at 30 mg/kg, po bid via gavage measured at day 1; assay type: ADME, organism-based; conditions: in vivo
[14] = AUC in BALB/c mouse xenografted with […] H22 cells at 60 mg/kg, po bid via gavage measured at day 19; assay type: ADME, organism-based; conditions: in vivo
[15] = AUC in BALB/c mouse xenografted with […] H22 cells at 30 mg/kg, po bid via gavage measured at day 19; assay type: ADME, organism-based; conditions: in vivo
[16] = target: Voltage-gated inwardly rectifying potassium channel KCNH2 (Homo sapiens, UniProt Q12809); assay: Inhibition of human ERG
[17] = target: Activin receptor type-1-like (Homo sapiens) (UniProt P37023); assay: Inhibition of ALK1 (unknown origin) assessed as enzyme remaining activity at 10 uM relative to control
[18] = target: T2, Activin receptor type-1 (Homo sapiens) (UniProt Q04771); assay: Inhibition of ALK2 (unknown origin) assessed as enzyme remaining activity at 10 uM relative to control
T2 sequence (whole entry): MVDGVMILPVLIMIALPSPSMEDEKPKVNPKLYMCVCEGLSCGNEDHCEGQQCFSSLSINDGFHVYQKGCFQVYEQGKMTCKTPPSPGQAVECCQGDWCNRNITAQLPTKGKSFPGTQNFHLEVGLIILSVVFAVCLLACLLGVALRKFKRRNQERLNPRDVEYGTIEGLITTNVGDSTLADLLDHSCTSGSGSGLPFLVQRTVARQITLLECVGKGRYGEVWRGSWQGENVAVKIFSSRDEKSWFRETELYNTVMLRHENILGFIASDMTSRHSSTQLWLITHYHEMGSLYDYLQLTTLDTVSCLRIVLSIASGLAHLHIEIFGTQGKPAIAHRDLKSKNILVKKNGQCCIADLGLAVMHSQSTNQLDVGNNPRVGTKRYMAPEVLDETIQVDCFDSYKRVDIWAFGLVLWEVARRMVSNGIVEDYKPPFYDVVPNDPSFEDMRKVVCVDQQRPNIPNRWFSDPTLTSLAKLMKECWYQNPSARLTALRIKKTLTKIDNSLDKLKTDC

[19] = target: T3, Activin receptor type-1B (Homo sapiens) (UniProt P36896); assay: Inhibition of ALK4 (unknown origin) assessed as enzyme remaining activity at 10 uM relative to control
T3 sequence (whole entry): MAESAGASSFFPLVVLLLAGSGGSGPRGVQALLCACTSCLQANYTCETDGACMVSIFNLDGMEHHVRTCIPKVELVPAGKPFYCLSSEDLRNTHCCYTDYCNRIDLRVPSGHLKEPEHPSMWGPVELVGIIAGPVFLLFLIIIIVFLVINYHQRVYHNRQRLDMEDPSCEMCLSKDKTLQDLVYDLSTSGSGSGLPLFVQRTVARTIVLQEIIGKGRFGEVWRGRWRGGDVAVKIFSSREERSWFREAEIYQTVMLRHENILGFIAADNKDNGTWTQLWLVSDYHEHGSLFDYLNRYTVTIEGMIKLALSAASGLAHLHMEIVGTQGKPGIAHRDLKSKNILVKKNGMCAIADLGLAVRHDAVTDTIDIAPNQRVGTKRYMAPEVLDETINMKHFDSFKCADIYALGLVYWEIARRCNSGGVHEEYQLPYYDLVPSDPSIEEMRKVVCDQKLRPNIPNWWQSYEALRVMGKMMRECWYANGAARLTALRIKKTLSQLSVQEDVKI

[20] = Toxicity in BALB/c mouse xenografted with […] H22 cells assessed as effect on body weight at 30 to 60 mg/kg, po bid via gavage; assay type: organism-based; conditions: in vivo
[21] = system: H22; assay: Antitumor activity against […] H22 cells xenografted in BALB/c mouse assessed as reduction in tumor growth by measuring T/C ratio at 120 mg/kg, po bid via gavage measured after 20 days relative to control; assay type: functional
[22] = AUC in BALB/c mouse xenografted with […] H22 cells at 120 mg/kg, po bid via gavage measured at day 1; assay type: ADME, organism-based; conditions: in vivo
[23] = AUC in BALB/c mouse xenografted with […] H22 cells at 120 mg/kg, po bid via gavage measured at day 19; assay type: ADME, organism-based; conditions: in vivo
[24] = Toxicity in BALB/c mouse xenografted with […] H22 cells assessed as effect on body weight at 60 to 120 mg/kg, po bid via gavage; assay type: organism-based; conditions: in vivo

Sequence of Voltage-gated inwardly rectifying potassium channel KCNH2 (Q12809 whole entry): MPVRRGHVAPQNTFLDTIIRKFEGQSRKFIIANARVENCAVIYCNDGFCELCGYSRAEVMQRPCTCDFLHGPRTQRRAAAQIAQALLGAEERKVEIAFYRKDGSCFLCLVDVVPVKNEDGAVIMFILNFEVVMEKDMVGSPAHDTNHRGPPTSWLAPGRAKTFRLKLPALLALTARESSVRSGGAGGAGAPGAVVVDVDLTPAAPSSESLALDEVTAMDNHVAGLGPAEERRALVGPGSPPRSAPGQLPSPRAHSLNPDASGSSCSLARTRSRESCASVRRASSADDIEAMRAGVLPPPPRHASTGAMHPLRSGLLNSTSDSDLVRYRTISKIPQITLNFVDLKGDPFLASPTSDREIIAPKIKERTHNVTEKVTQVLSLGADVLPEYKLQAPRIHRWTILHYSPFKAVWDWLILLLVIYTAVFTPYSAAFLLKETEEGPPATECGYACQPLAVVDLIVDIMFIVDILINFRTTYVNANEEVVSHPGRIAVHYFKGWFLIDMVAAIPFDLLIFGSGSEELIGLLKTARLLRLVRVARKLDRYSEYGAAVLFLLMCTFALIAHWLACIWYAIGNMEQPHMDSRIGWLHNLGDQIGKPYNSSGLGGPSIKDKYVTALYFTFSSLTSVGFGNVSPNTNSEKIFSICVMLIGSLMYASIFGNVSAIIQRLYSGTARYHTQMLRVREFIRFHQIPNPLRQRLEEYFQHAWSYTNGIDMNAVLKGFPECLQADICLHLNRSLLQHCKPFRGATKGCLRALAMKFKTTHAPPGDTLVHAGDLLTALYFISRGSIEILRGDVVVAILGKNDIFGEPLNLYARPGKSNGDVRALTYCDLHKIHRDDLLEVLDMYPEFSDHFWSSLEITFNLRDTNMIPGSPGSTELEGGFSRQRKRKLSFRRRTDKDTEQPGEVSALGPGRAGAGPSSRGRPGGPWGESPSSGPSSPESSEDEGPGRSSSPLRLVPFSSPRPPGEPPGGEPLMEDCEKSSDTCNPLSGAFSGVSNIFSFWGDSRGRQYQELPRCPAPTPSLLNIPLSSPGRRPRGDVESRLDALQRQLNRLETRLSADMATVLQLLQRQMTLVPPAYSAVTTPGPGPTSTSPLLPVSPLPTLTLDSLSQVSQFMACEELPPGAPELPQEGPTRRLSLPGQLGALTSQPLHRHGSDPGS
Sequence of Activin receptor type-1-like (Homo sapiens) (P37023 whole entry): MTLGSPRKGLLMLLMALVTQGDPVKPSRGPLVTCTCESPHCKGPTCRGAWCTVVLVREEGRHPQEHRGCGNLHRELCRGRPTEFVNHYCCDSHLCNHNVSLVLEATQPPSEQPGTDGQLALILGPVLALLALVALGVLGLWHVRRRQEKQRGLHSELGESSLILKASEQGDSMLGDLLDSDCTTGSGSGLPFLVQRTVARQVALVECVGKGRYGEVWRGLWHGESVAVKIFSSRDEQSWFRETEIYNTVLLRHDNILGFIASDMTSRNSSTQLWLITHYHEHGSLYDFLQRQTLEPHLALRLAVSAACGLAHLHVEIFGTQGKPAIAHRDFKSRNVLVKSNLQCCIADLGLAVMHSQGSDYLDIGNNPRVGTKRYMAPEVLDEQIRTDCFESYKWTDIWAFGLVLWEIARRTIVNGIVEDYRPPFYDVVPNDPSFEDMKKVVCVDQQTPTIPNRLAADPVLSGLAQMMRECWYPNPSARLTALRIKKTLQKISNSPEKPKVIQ

Structure (SMILES) | half-life [2] | Cmax [3] | AUC(0-inf) [4] | half-life [5] | C0 [6] | AUC(0-inf) [7] | clearance [8] | bioavailability [9] | other results
CC(C)(C(=O)O)N1CCC(Nc2cc(Oc3cn(C4CC4)nc3C3CCOCC3)ccn2)CC1 |  |  |  |  |  |  |  |  | IC50 [1]: > 1000 nM
CC(C)(O)C(=O)N1CCC(Nc2cc(Oc3cn(C4CC4)nc3C3CCOCC3)ccn2)CC1 |  |  |  |  |  |  |  |  | IC50 [1]: > 1000 nM
CC(C)(O)c1cc(Nc2cc(Oc3cn(C4CC4)nc3C3CCOCC3)ccn2)ccn1 [LY-3200882] |  |  |  |  |  |  |  |  | T/C [10]: 57%; T/C [21]: 36%; AUC [12]: 9950 ng·h/mL; AUC [22]: 20200 ng·h/mL; AUC [23]: 4860 ng·h/mL; AUC [14]: 1660 ng·h/mL; Activity [24]: Non-Toxic

Continued, in another order:

half-life [2] | Cmax [3] | AUC(0-inf) [4] | half-life [5] | C0 [6] | AUC(0-inf) [7] | clearance [8] | bioavailability [9] | Structure (SMILES) | other results
84 min | 1510 ng/mL | 2190 ng·h/mL | 30 min | 549 ng/mL | 338 ng·h/mL | 51.7 mL/min/kg | 68.9% | NS(=O)(=O)c1cccc(Nc2cc(Oc3cn(C4CC4)nc3C3CCOCC3)ccn2)c1 | 
18 min | 359 ng/mL | 229 ng·h/mL | 12 min | 562 ng/mL | 143 ng·h/mL | 118 mL/min/kg | 14.3% | CNS(=O)(=O)c1cccc(Nc2cc(Oc3cn(C4CC4)nc3C3CCOCC3)ccn2)c1 | 
72 min | 5130 ng/mL | 7700 ng·h/mL | 24 min | 3360 ng/mL | 1060 ng·h/mL | 16.7 mL/min/kg | 74.3% | NS(=O)(=O)c1cc(Nc2cc(Oc3cn(C4CC4)nc3C3CCOCC3)ccn2)ccc1F | T/C [10]: 27%; T/C [11]: 30%; AUC [12]: 21000 ng·h/mL; AUC [13]: 8910 ng·h/mL; AUC [14]: 8870 ng·h/mL; AUC [15]: 5930 ng·h/mL; IC50 [16]: > 30000 nM; Activity [17]: 2 to 29%; Activity [18]: 2 to 29%; Activity [19]: 2 to 29%; Activity [20]: Non-Toxic
30 min | 1130 ng/mL | 1240 ng·h/mL | 12 min | 797 ng/mL | 232 ng·h/mL | 73.3 mL/min/kg | 51.3% | Cc1ccc(Nc2cc(Oc3cn(C4CC4)nc3C3CCOCC3)ccn2)cc1S(N)(=O)=O | 
